According to patent publication US20250367129A1, “Lipid Compounds and Uses Thereof” (Pfizer Inc., priority 2022, published 2025):

What was measured:
[1] = Encapsulation efficiency, RiboGreen RNA quantitation assay (CA HA modFlu mRNA LNPs); format: physicochemical; conditions: LNP with CA HA modFlu mRNA
Procedure: (§1) Lipid nanoparticles were prepared and tested according to the general procedures described in U.S. Pat. No. 9,737,619 (PCT Pub. No. WO2015/199952) and U.S. Pat. No. 10,166,298 (PCT Pub. No. WO 2017/075531) and PCT Pub. No. WO2020/146805. The novel ionizable lipids of the invention, cholesterol, distearoylphosphatidylcholine (DSPC) and ALC-0159 2-[(polyethylene glycol)-2000]-N,N ditetradecylacetamide were solubilized in ethanol at a molar ratio of about 46.3:42.7:9.4:1.6. Lipid nanoparticles were made by mixing the lipids containing organic phase with the mRNA containing aqueous phase using an N:P ratio of about 6:1. The mRNA was diluted in buffer. Syringe pumps were used to mix the ethanolic lipid solution with the mRNA aqueous solution. The ethanol was then removed, and the external buffer replaced with another buffer (e.g., Tris) by dialysis. Finally, the lipid nanoparticles were filtered.
(§2) Total RNA concentration and encapsulation efficiency was assessed using the RiboGreen RNA quantitation assay. RNA integrity pre and post formulation was monitored by Agilent Fragment Analyzer capillary gel electrophoresis. Malvern Zetasizer dynamic light scattering (DLS) was used to determine LNP size and polydispersity index (PDI). In vitro expression of the novel ionizable lipid nanoparticles was assessed in HEK293F and Hela cells similar to described in Example 72. Nuclear count and identification of cells stained positive for gene of interest was done on an Opera Phenix high content imager (PerkinElmer, USA).

[2] = LNP size and polydispersity index by Malvern Zetasizer dynamic light scattering (CA HA modFlu mRNA LNPs); format: physicochemical; conditions: DLS; for Size (nm): LNP of the ionizable lipid:cholesterol:DSPC:ALC-0159 about 46.3:42.7:9.4:1.6, N:P about 6:1, CA HA modFlu mRNA; for PDI: LNP with CA HA modFlu mRNA
Procedure: as §1, §2

HEK293F cells = assay: In vitro expression of novel ionizable lipid nanoparticles, high content imaging (CA HA modFlu mRNA); format: cell-based; conditions: LNP with CA HA modFlu mRNA
Procedure: (§3) Plated Hek293T or Hela cells were dosed with lipid nanoparticles in a total volume of 40 μl cell culture media and incubated overnight at 37° C. and 5% CO2. After fixation with 4% paraformaldehyde in PBS cells were washed in PBS containing 0.3% Triton-X100 and 3% BSA (w/v), followed by nuclear staining with Hoechst and antibody staining for the encoded gene of interest. Nuclear count and identification of cells stained positive for gene of interest was done on an Opera Phenix high content imager (PerkinElmer, USA).
as §1, §2

Hela cells = assay: as above; format: cell-based; conditions: LNP with CA HA modFlu mRNA
Procedure: as §3, §1, §2

Structure (SMILES) | EE % [1] [%] | Size (nm) [2] [nm] | PDI [2] | EC50 Hek293F (ng/well) (HEK293F cells) | EC50 Hela (ng/well) (Hela cells)
CCCCCCCC(CCCCCCC)C(=O)O[C@@H]1CC2(CCN(CCCO)CC2)C[C@H]1OC(=O)C(CCCCCCC)CCCCCCC (racemic) [Example 54, rac-(2R,3R)-8-(3-hydroxypropyl)-8-azaspiro[4.5]decane-2,3-diyl bis(2-heptylnonanoate)] | 98 | 71 | 0.101 | 1.5 | 3.6
CCCCCCCC(CCCCCCC)C(=O)OCC(COC(=O)C(CCCCCCC)CCCCCCC)N1CCC2(CCN(CCCNc3c(NC)c(=O)c3=O)CC2)CC1 [Example 8, 2-(9-(3-((2-(methylamino)-3,4-dioxocyclobut-1-en-1-yl)amino)propyl)-3,9-diazaspiro[5.5]undecan-3-yl)propane-1,3-diyl bis(2-heptylnonanoate)] | 100 | 68 | 0.101 | 4.1 | 2.5
CCCCCCCCCC(CCCCCC)C(=O)O[C@@H]1CC2(CCN(CCCCO)CC2)C[C@H]1OC(=O)C(CCCCCC)CCCCCCCCC (mixture of isomers) [Example 67, rac-(2R,3R)-8-(4-hydroxybutyl)-8-azaspiro[4.5]decane-2,3-diyl bis(2-hexylundecanoate)] | 96 | 89 | 0.127 | 1.4 | 2.0
CCCCCCCCCC(CCCC)C(=O)OCC(COC(=O)C(CCCCCC)CCCCCCCC)N1CCC2(CCN(CCCCO)CC2)CC1 (centres unmarked) [Example 45, 3-((2-hexyldecanoyl)oxy)-2-(9-(4-hydroxybutyl)-3,9-diazaspiro[5.5]undecan-3-yl)propyl 2-butylundecanoate] | 99 | 117 | 0.060 | 1.1 | 1.1
CCCCCCCCC(CCCCCCC)C(=O)OCC(COC(=O)C(CCCCCCC)CCCCCCCC)N1CCC2(CCN(CCCCO)CC2)CC1 (centres unmarked) [Example 26, 2-(9-(4-hydroxybutyl)-3,9-diazaspiro[5.5]undecan-3-yl)propane-1,3-diyl bis(2-heptyldecanoate)] | 100 | 96 | 0.030 | 1.6 | 1.8
CCCCCCCC(CCCCCCC)C(=O)O[C@@H]1CC2(CCN(CCO)CC2)C[C@H]1OC(=O)C(CCCCCCC)CCCCCCC (racemic) [Example 52, rac-(2R,3R)-8-(2-hydroxyethyl)-8-azaspiro[4.5]decane-2,3-diyl bis(2-heptylnonanoate)] | 99 | 66 | 0.088 | 3.3 | 11.0
CCCCCCCCC(CCCC)C(=O)OCC(COC(=O)C(CCCC)CCCCCCCC)N1CCC2(CCN(CCCCO)CC2)CC1 (centres unmarked) [Example 27, 2-(9-(4-hydroxybutyl)-3,9-diazaspiro[5.5]undecan-3-yl)propane-1,3-diyl bis(2-butyldecanoate)] | 97 | 74 | 0.095 | 35.9 | 12.5
CCCCCCCC(CCCCCCC)C(=O)OCC(COC(=O)C(CCCCCCC)CCCCCCC)N1CC2(CCN(CCCCO)CC2)C1 [Example 13, 2-(7-(4-hydroxybutyl)-2,7-diazaspiro[3.5]nonan-2-yl)propane-1,3-diyl bis(2-heptylnonanoate)] | 99 | 131 | 0.086 | 0.36 | 1.6
CCCCCCCCC(CCCCC)C(=O)O[C@@H]1CC2(CCN(CCCCO)CC2)C[C@H]1OC(=O)C(CCCCC)CCCCCCCC (mixture of isomers) [Example 65, rac-(2R,3R)-8-(4-hydroxybutyl)-8-azaspiro[4.5]decane-2,3-diyl bis(2-pentyldecanoate)] | 97 | 123 | 0.038 | 0.35 | 0.57
CCCCCCCCC(CCCCCC)C(=O)OCC(COC(=O)C(CCCCCC)CCCCCCCC)N1CCC2(CCN(CCCCO)CC2)CC1 (centres unmarked) [Example 23, 2-(9-(4-hydroxybutyl)-3,9-diazaspiro[5.5]undecan-3-yl)propane-1,3-diyl bis(2-hexyldecanoate)] | 100 | 144 | 0.090 | 0.47 | 1.2
CCCCCCCC(CCCCCCC)C(=O)OCC(COC(=O)C(CCCCCCC)CCCCCCC)N1CCC2(CC1)CN(CCCCO)C2 [Example 20, 2-(2-(4-hydroxybutyl)-2,7-diazaspiro[3.5]nonan-7-yl)propane-1,3-diyl bis(2-heptylnonanoate)] | 98 | 105 | 0.073 | 0.22 | 0.28
CCCCCCCC(CCCCCCC)C(=O)OCC(COC(=O)C(CCCCCCC)CCCCCCC)N1CCC2(CCN(CCCCO)C2)C1 (centres unmarked) [Example 12, 2-(7-(4-hydroxybutyl)-2,7-diazaspiro[4.4]nonan-2-yl)propane-1,3-diyl bis(2-heptylnonanoate)] | 100 | 105 | 0.042 | 0.22 | 0.44
CCCCCCCC(CCCCCCC)C(=O)OCC(COC(=O)C(CCCCCCC)CCCCCCC)N1CCC2(CCN(CCCCCO)C2)C1 (centres unmarked) [Example 41, 2-(7-(5-hydroxypentyl)-2,7-diazaspiro [4.4]nonan-2-yl)propane-1,3-diyl bis(2-heptylnonanoate)] | 99 | 119 | 0.060 | 0.20 | 0.30
CCCCCCCCC(CCCCCC)C(=O)O[C@@H]1CC2(CCN(CCCCO)CC2)C[C@H]1OC(=O)C(CCCCCC)CCCCCCCC (mixture of isomers) [Example 61, rac-(2R,3R)-8-(4-hydroxybutyl)-8-azaspiro[4.5]decane-2,3-diyl bis(2-hexyldecanoate)] | 99 | 77 | 0.094 | 1.0 | 1.6
CCCCC(CCCC)C(CCCC)CCC(=O)OCC(COC(=O)CCC(CCCC)C(CCCC)CCCC)N1CCC2(CCN(CCCCO)CC2)CC1 (centres unmarked) [Example 38, 2-(9-(4-hydroxybutyl)-3,9-diazaspiro[5.5]undecan-3-yl)propane-1,3-diyl bis(4,5-dibutylnonanoate)] | 100 | 146 | 0.100 | 28.1 | 7.0
CCCCCCCCC(CCCCCC)C(=O)OCCCC(COC(=O)C(CCCCCC)CCCCCCCC)N1CCC2(CCN(CCCCO)CC2)CC1 (centres unmarked) [Example 19, 2-(9-(4-hydroxybutyl)-3,9-diazaspiro[5.5]undecan-3-yl)pentane-1,5-diyl bis(2-hexyldecanoate)] | 99 | 153 | 0.140 | 1.4 | 0.89
CCCCCCCCC(CCCCCC)C(=O)OCC(COC(=O)C(CCCCCC)CCCCCCCC)N1CCC2(CCN(CCCNC(=O)C3(C)CC3)CC2)CC1 (centres unmarked) [Example 9, 2-(9-(3-(1-methylcyclopropane-1-carboxamido)propyl)-3,9-diazaspiro[5.5]undecan-3-yl)propane-1,3-diyl bis(2-hexyldecanoate)] | 99 | 96 | 0.070 | 2.6 | 4.2
CCCCCCCCC(CCCCCCCC)C(=O)OCC(COC(=O)C(CCCCCCCC)CCCCCCCC)N1CCC2(CCN(CCCCO)CC2)CC1 [Example 24, 2-(9-(4-hydroxybutyl)-3,9-diazaspiro[5.5]undecan-3-yl)propane-1,3-diyl bis(2-octyldecanoate)] | 99 | 82 | 0.072 | 0.48 | 0.72
CCCCCCCCC(C(=O)OCC(COC(=O)C(CCCCCCCC)C1CCC1)N1CCC2(CCN(CCCCO)CC2)CC1)C1CCC1 (centres unmarked) [Example 4, 2-(9-(4-hydroxybutyl)-3,9-diazaspiro[5.5]undecan-3-yl)propane-1,3-diyl bis(2-cyclobutyldecanoate)] | 98 | 97 | 0.170 | 46.9 | >50
